According to patent publication US9784740B2 (priority 2013, dated 2017):
“And” between values parts separate entries of the source, which are not always exact repeats. Identical values can stand only once. “Also recorded” adds a separate entry of the source. Like-named read-outs stand apart in the source and are kept apart here.

How the values were obtained:
[1] = biological target: T1, mu-opioid receptor (OPRM1) (Homo sapiens, UniProt P35372); experiment: β-arrestin recruitment assay (PathHunter) in U2OS-OPRM1 cells; details: for Description (PAM efficacy class / SAM): U2OS-OPRM1, β-arrestin PAM and SAM detection modes; for β-arrestin recruitment, agonist detection mode (compound alone): U2OS-OPRM1 cells, no orthosteric agonist
[2] = biological target: T1, mu-opioid receptor (OPRM1); experiment: cell-based
[3] = biological target: T2, human mu opioid receptors (Homo sapiens, UniProt P35372)
[4] = biological target: T1, mu-opioid receptor (OPRM1)
[5] = biological target: T2, human mu opioid receptors; experiment: Inhibition of forskolin-stimulated cAMP accumulation in CHO-mu cells; details: for EC50: mean (95% CI)
[6] = biological target: T3, delta opioid receptor (OPRD1) (Homo sapiens, UniProt P41143); experiment: β-arrestin recruitment assay (PathHunter) in U2OS-OPRD1 cells; format: cell-based; details: for β-arrestin recruitment, agonist detection mode: U2OS-OPRD1, no leu-enkephalin; for β-arrestin recruitment, PAM detection mode: U2OS-OPRD1, ~EC10 (0.4 nM) leu-enkephalin
T3 construct: host or cells: U2OS (PathHunter U2OS-OPRD1)

[7] = biological target: T4, mu-opioid receptor (C6mu membranes) (Rattus norvegicus, UniProt P33535); experiment: [35S]GTPγS binding in C6mu cell membranes; format: biochemical; details: for agonist activity of modulator in [35S]GTPγS binding: modulator alone
T4 construct: expressed in transfected cells; host or cells: C6 glioma cells (membranes)

[8] = biological target: T5, mu-opioid receptor (mouse brain membranes) (Mus musculus, UniProt P42866); experiment: [35S]GTPγS binding in mouse brain membranes; format: biochemical
T5 construct: membranes from a physiologically relevant tissue with endogenous levels of receptor and G-protein; from tissue; host or cells: mouse whole brain minus cerebellum, membrane homogenate

[9] = biological target: T2, human mu opioid receptors; experiment: cell-based
[10] = biological target: T4, mu-opioid receptor (C6mu membranes); format: binding
[11] = biological target: T4, mu-opioid receptor (C6mu membranes); experiment: DAMGO competition binding with [3H]diprenorphine in C6mu membranes; details: 10 uM modulator
[12] = C6mu membranes, 10 uM modulator

T1 sequence (P35372 whole entry): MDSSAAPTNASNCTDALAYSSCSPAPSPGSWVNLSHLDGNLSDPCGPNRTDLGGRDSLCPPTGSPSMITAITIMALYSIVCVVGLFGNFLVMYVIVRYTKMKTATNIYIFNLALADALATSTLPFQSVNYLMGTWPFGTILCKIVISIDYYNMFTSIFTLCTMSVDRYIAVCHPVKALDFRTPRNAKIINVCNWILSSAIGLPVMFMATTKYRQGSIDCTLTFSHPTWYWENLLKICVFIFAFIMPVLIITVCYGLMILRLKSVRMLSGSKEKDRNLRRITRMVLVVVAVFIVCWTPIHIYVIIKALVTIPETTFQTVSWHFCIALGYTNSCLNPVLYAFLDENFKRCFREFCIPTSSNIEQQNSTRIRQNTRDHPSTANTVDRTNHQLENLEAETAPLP
T2 sequence (P35372 whole entry): as above
T3 sequence (P41143 whole entry): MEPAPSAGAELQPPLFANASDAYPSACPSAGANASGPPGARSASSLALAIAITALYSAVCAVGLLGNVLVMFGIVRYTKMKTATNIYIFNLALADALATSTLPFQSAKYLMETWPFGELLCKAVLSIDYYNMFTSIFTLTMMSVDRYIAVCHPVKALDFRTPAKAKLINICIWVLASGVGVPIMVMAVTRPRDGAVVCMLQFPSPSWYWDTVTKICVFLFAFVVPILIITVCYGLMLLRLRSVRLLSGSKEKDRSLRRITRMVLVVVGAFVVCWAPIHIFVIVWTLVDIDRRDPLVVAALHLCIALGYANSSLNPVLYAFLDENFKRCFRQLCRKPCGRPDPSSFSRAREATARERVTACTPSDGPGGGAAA
T4 sequence (P33535 whole entry): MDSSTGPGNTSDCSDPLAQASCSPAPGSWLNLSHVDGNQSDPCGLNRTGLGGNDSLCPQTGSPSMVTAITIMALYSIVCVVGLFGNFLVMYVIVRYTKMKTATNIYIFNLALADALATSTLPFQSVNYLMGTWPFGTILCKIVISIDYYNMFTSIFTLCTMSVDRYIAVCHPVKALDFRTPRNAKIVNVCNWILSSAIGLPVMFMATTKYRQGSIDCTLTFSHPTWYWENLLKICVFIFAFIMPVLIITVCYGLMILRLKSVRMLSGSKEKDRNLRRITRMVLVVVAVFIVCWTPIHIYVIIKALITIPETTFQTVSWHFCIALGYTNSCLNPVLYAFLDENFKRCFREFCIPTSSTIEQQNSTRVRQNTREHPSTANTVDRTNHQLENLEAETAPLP
T5 sequence (P42866 whole entry): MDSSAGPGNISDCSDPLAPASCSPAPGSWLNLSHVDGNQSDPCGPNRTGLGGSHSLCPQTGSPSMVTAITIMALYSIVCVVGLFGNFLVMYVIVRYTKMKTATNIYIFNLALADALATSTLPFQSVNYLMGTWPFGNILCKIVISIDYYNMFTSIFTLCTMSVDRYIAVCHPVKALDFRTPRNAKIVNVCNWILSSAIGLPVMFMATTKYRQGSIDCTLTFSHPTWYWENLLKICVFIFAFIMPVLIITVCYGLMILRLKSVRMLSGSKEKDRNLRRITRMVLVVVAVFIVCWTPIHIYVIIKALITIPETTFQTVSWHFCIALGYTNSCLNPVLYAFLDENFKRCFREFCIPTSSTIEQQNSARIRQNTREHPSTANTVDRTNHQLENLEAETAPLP

COc1ccc(C2SCCN2S(=O)(=O)c2ccc(C)cc2)cc1Br (stereo not drawn) [Analog 2]
Description (PAM efficacy class / SAM) [1]: Weak PAM
EC50 [2]: 4 µM

O=S(=O)(c1ccc(Cl)cc1)N1CCSC1c1ccc(Br)cc1 (stereo not drawn) [Analog 12]
Description (PAM efficacy class / SAM) [1]: Weak PAM
EC50 [2]: 6 µM

COc1ccc(S(=O)(=O)N2CCSC2c2ccc(Br)cc2)cc1 (stereo not drawn) [Analog 14]
Description (PAM efficacy class / SAM) [1]: Weak PAM
EC50 [2]: 7 µM

COc1ccc(C2SCCN2S(=O)(=O)c2ccc(Br)cc2)cc1[N+](=O)[O-] (stereo not drawn) [Analog 6]
Description (PAM efficacy class / SAM) [1]: Moderate PAM
EC50 [2]: 2 µM

COc1ccc(C2SCCN2S(=O)(=O)c2ccc(Br)cc2)cc1 (stereo not drawn) [Analog 9]
Description (PAM efficacy class / SAM) [1]: Moderate PAM
EC50 [2]: 7 µM

COc1ccc(C2SCCN2S(=O)(=O)c2ccccc2)cc1 (stereo not drawn) [Analog 10]
Description (PAM efficacy class / SAM) [1]: Weak PAM
EC50 [2]: 23 µM

O=[N+]([O-])c1ccc(-c2csc(=Nc3c(Cl)cccc3Cl)[nH]2)cc1 [BMS-986121]
EC50 [3]: 2.2 µM
EC50 [4]: 1 µM and 1.7 µM
Emax [4]: 72%
leftward shift in potency of endomorphin-I ([5]; CHO-mu, 100 uM modulator): 4 fold and 4.3 fold
leftward shift in potency of leu-enkephalin ([5]; CHO-mu, 100 uM modulator): 4.5 fold
leftward shift in potency of morphine ([5]; CHO-mu, 100 uM modulator): 6.5 fold
Emax of agonist activity (agonist detection mode) ([5]; CHO-mu, no orthosteric agonist, 100% = 10 nM endomorphin-I): 35 (6-63) %
EC50 ([5]; read-out: EC50 of agonist activity (agonist detection mode), CHO-mu, no orthosteric agonist): 14 µM
β-arrestin recruitment, agonist detection mode (compound alone) [1]: Neither BMS-986121 nor BMS-986122 produced significant β-arrestin recruitment on their own
β-arrestin recruitment, agonist detection mode [6]: Neither compound had any significant effect
β-arrestin recruitment, PAM detection mode [6]: Neither compound had any significant effect
effect of modulator on maximal stimulation by DAMGO [7, 12]: not affected
increase in morphine potency [7, 12]: 2.5 fold
leftward shift in DAMGO CRC (potency) [7, 12]: 4 fold
agonist activity of modulator in [35S]GTPγS binding ([7]; C6mu membranes): No significant agonist activity was detected

C[C@@H](NC(=O)[C@@H](N)Cc1ccc(O)cc1)C(=O)NCC(=O)N(C)[C@@H](Cc1ccccc1)C(=O)NCCO [DAMGO, reference compound]
stimulation of [35S]GTPγS binding above basal activity ([7]; C6mu membranes, 10 uM DAMGO, 5 min): 250%
Emax ([7]; read-out: maximal stimulation by DAMGO, control): 232%

endomorphin-I [reference compound]
reduction in forskolin-stimulated cAMP accumulation ([5]; CHO-mu, 1 uM forskolin): 17 fold
potency in cAMP assay (CHO) relative to arrestin recruitment (U2OS PathHunter) ([5]; cAMP inhibition vs β-arrestin recruitment): ~1000 fold

COc1cc(Br)ccc1C1SCCN1S(=O)(=O)c1ccc(Cl)cc1 (racemic) [BMS-986124]
antagonist/NAM detection mode: effect on EC80 endomorphin-I response ([1]; U2OS-OPRM1, 300 nM endomorphin-I): no significant effect; also recorded: Neither compound significantly inhibited; also recorded: no NAM/antagonist activity
SAM detection mode: inhibition of BMS-986122 PAM response ([1]; U2OS-OPRM1, 12.5 uM (~EC80) BMS-986122 plus 30 nM (~EC20) endomorphin-I): able to inhibit the PAM response; also recorded: inhibited PAM responses
Description (PAM efficacy class / SAM) [1]: SAM
β-arrestin recruitment, agonist detection mode (compound alone) [1]: no activity
Kb ([1]; read-out: β-arrestin SAM Detection Mode (Kb), U2OS-OPRM1, inhibition of BMS-986122 (~EC80) response with ~EC20 endomorphin-I, Kb calculated from IC50): 2 µM
β-arrestin recruitment, agonist detection mode [6]: no activity
β-arrestin recruitment, PAM detection mode [6]: no activity
effect on DAMGO potency in [35S]GTPγS assay [7, 12]: not significantly increased
effect on morphine Emax in [35S]GTPγS assay [7, 12]: increased morphine Emax to a small degree
effect on morphine potency in [35S]GTPγS assay [7, 12]: not significantly increased
effect on DAMGO-stimulated [35S]GTPγS binding potency ([7]; C6mu membranes, 50 uM BMS-986124 alone): not affected
agonist activity of modulator in [35S]GTPγS binding ([7]; C6mu membranes): No significant agonist activity was detected

COc1ccc(S(=O)(=O)N2CCSC2c2ccc(OC)c(Br)c2)cc1 (stereo not drawn) [Analog 3]
Description (PAM efficacy class / SAM) [1]: Weak PAM
EC50 [2]: 6 µM

COc1ccc(C2SCCN2S(=O)(=O)c2ccc(Cl)cc2)cc1[N+](=O)[O-] (stereo not drawn) [Analog 5]
Description (PAM efficacy class / SAM) [1]: Moderate PAM
EC50 [2]: 4 µM

COc1ccc(C2SCCN2S(=O)(=O)c2cccc(C)c2)cc1Br (stereo not drawn) [Analog 4]
Description (PAM efficacy class / SAM) [1]: Weak PAM
EC50 [2]: 9 µM

COc1ccc(C2SCCN2S(=O)(=O)c2ccc(OC)cc2)cc1 (stereo not drawn) [Analog 15]
Description (PAM efficacy class / SAM) [1]: Weak PAM
EC50 [2]: 37 µM

O=S(=O)(c1ccc(Cl)cc1)N1CCSC1c1cccc(Cl)c1 (stereo not drawn) [Analog 11]
Description (PAM efficacy class / SAM) [1]: Strong PAM
EC50 [2]: 5 µM

COc1ccc(C2SCCN2S(=O)(=O)c2ccc(Br)cc2)cc1OC (racemic) [Analog 8]
EC50 [4]: 14 µM
Description (PAM efficacy class / SAM) [1]: Weak PAM

COc1ccc(C2SCCN2S(=O)(=O)c2ccc([N+](=O)[O-])cc2)cc1Br (stereo not drawn) [Analog 1]
Description (PAM efficacy class / SAM) [1]: Moderate PAM
EC50 [2]: 2 µM

COc1ccc(C2SCCN2S(=O)(=O)c2ccc(Cl)cc2)cc1Br (stereo not drawn) [BMS-986122]
agonist activity of modulator [8]: No agonist activity was observed
leftward shift in DAMGO potency ([8]; 10 uM modulator): 4.5 fold
effect on basal [35S]GTPγS binding ([8]; 10 uM modulator, basal 4.8±0.4 fmol bound/mg protein): not affected
Emax [4]: 79%
EC50 [9]: 8.9 µM
effect on [3H]diprenorphine binding affinity [10]: no significant effect; also recorded: did not affect; also recorded: had no effect
EC50 ([5]; EC50 of agonist activity (agonist detection mode), CHO-mu, no orthosteric agonist): 41 µM
Emax ([5]; read-out: Emax of agonist activity (agonist detection mode)): 60%
Description (PAM efficacy class / SAM) [1]: Full PAM (ref)
β-arrestin recruitment, agonist detection mode (compound alone) [1]: Neither BMS-986121 nor BMS-986122 produced significant β-arrestin recruitment on their own
β-arrestin recruitment, agonist detection mode [6]: Neither compound had any significant effect
β-arrestin recruitment, PAM detection mode [6]: Neither compound had any significant effect
effect of modulator on maximal stimulation by DAMGO [7, 12]: not affected
increase in morphine potency [7, 12]: 3 fold
leftward shift in DAMGO CRC (potency) [7, 12]: 8 fold and 7 fold
agonist activity of modulator in [35S]GTPγS binding ([7]; C6mu membranes): No significant agonist activity was detected
increase in the affinity of DAMGO [11]: 6 fold
EC50 [2]: 3 µM and 4.9 µM
